According to patent US20240309016A1, “MACROCYCLIC HETEROCYCLE COMPOUNDS AND USE THEREOF” (TAKEDA PHARMACEUTICAL COMPANY LIMITED, priority 2023, published 2024):

Target: T1, human OX2 receptor (Homo sapiens, UniProt O43614)
T1 construct: expressed in transfected cells
T1 sequence (O43614 1-444): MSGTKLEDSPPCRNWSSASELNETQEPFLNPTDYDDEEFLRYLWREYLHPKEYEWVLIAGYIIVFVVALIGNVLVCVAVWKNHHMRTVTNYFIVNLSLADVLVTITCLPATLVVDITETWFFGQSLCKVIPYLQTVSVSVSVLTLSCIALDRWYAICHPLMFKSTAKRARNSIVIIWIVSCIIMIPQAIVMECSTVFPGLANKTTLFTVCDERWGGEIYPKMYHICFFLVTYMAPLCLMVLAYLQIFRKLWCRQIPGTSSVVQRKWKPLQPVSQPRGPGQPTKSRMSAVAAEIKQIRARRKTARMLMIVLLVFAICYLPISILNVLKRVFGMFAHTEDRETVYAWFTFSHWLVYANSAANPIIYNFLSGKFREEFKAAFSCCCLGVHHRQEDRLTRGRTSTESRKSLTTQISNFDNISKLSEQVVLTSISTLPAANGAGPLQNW
Assay: Measurement of orexin type 2 receptor agonist activity (Experimental Example 2; Fluo-4 AM calcium fluorescence, FDSS μCELL)
Type: cell-based
Settings: compound at 3 μM; CHO cells expressing human OX2 receptor; DMSO = 0%, 10 nM orexin A (human) = 100%
Description: In order to obtain cell clones that stably express human orexin type 2 receptor, human orexin type 2 (residues 1-444, NCBI Reference Sequence: AK314279) was constructed in a pcDNA3.1 (+) vector (Invitrogen) to express in mammalian cells. This plasmid DNA was transfected into CHO-K1 cells by electroporation, and stable clones were obtained by limiting dilution using resistance to G418 as a selection marker.
CHO cells in which human OX2 receptor was forcibly expressed were seeded at 10,000 cells/well into a 384-well black transparent bottom plate (BD falcon), and were incubated at 37° C., 5% CO2 for 1 day after incubation at room temperature for 30 minutes. After removing the cell plate medium, assay buffer containing calcium indicator A (HBSS (Thermo Fisher Scientific), 20 mM HEPES (Thermo Fisher Scientific), 0.1% BSA (Sigma-Aldrich), 2.5 μg/mL Fluo-4 AM (Dojin Kagaku), 0.08% Pluronic F127 (Dojin Kagaku), 1.25 mM probenecid (Dojin Kagaku)) was added at 30 μL/well. After incubation in a 5% CO2 incubator at 37° C. for 30 minutes, it was incubated at room temperature for another 30 minutes. Add 10 μL/well of the test compound diluted with assay buffer B (HBSS, 20 mM HEPES, 0.1% BSA), and use FDSS μCELL (Hamamatsu Photonics) to measure the fluorescence value every 1 second for 1 minute, and then every 2 seconds for 1 minute. It was measured for 1 minute and 40 seconds. The amount of fluorescence value when DMSO is added instead of the test compound is defined as 0%, and the amount of fluorescence value when orexin A (human) (Peptide Institute) with a final concentration of 10 nM is added is defined as 100%. The activity (%) of the test compound was calculated. Table 2-1, 2-2, 2-3, and 2-4 show the activity of each compound at a concentration of 3 μM.

Row | SMILES | OX2R agonist activity (3 μM, %)
1 | CCS(=O)(=O)N[C@@H]1[C@@H]2Cc3cccc(c3F)Oc3nc(ccc3C(F)F)CNC(=O)N2CC1(F)F [Example 29, N-[(15aS,16R)-7-(difluoromethyl)-17,17,20-trifluoro-1-oxo-2,3,15a,16,17,18-hexahydro-1H,15H-4,8-(azeno)-10,14-(metheno)pyrrolo[1,2-j][1,8,10]oxadiazacyclo-heptadecin-16-yl]ethanesulfonamide] | 100%
2 | CCS(=O)(=O)N[C@@H]1[C@@H]2Cc3cccc(c3F)Oc3nc(cnc3C)OCC(=O)N2CC1(F)F [Example 81, N-[(15aS,16R)-17,17,20-trifluoro-7-methyl-1-oxo-1,2,15a,16,17,18-hexahydro-15H-4,8-(azeno)-10,14-(metheno)pyrrolo[1,2-j][1,7,4,10]dioxadiazacyclo-heptadecin-16-yl]ethanesulfonamide] | 102%
3 | CCS(=O)(=O)N[C@@H]1[C@@H]2Cc3cccc(c3F)Oc3nc(c(F)cc3C)CNC(=O)N2CC1(F)F [Example 32, N-[(15aS,16R)-5,17,17,20-tetrafluoro-7-methyl-1-oxo-2,3,15a,16,17,18-hexahydro-1H,15H-4,8-(azeno)-14,10-(metheno)pyrrolo[1,2-j][1,8,10]oxadiazacyclo-heptadecin-16-yl]ethanesulfonamide] | 101%
4 | CCS(=O)(=O)N[C@H]1[C@@H](F)CN2C(=O)CCc3ccc(Cl)c(n3)Oc3cccc(c3F)C[C@@H]12 [Example 82, N-[(1R,2S,19aS)-11-chloro-2,20-difluoro-5-oxo-2,3,6,7,19,19a-hexahydro-1H,5H-12,8-(azeno)-14,18-(metheno)pyrrolo[2,1-h][1,9]oxazacycloheptadecin-1-yl]ethanesulfonamide] | 101%
5 | CS(=O)(=O)N[C@@H]1[C@@H]2Cc3cccc(c3F)Oc3nc(c(F)cc3Cl)CNC(=O)N2CC1(F)F [Example 30, N-[(15aS,16R)-7-chloro-5,17,17,20-tetrafluoro-1-oxo-2,3,15a,16,17,18-hexahydro-1H,15H-4,8-(azeno)-14,10-(metheno)pyrrolo[1,2-j][1,8,10]oxadiazacyclo-heptadecin-16-yl]methanesulfonamide] | 102%
6 | Cc1cnc2nc1Oc1cccc(c1F)C[C@H]1[C@@H](NS(C)(=O)=O)C(F)(F)CN1C(=O)CO2 [Example 77, N-[(15aS,16R)-17,17,20-trifluoro-7-methyl-1-oxo-1,2,15a,16,17,18-hexahydro-15H-4,8-(azeno)-10,14-(metheno)pyrrolo[2,1-n][1,7,3,15]dioxadiazacyclo-heptadecin-16-yl]methanesulfonamide] | 104%
7 | CS(=O)(=O)N[C@H]1[C@@H](F)CN2C(=O)OCc3ccc(C(F)F)c(n3)Oc3cccc(c3F)C[C@@H]12 [Example 38, N-[(15aS,16R,17S)-7-(difluoromethyl)-17,20-difluoro-1-oxo-15a,16,17,18-tetrahydro-1H,3H,15H-8,4-(azeno)-10,14-(metheno)pyrrolo[1,2-c][1,11,3]dioxazacyclo-heptadecin-16-yl]methanesulfonamide] | 80%
8 | Cc1ccc2nc1Oc1cccc(c1F)C[C@H]1[C@@H](NS(=O)(=O)C3CC3)C(F)(F)CN1C(=O)NC2 [Example 23, N-[(15aS,16R)-17,17,20-trifluoro-7-methyl-1-oxo-2,3,15a,16,17,18-hexahydro-1H,15H-4,8-(azeno)-14,10-(metheno)pyrrolo[1,2-j][1,8,10]oxadiazacyclo-heptadecin-16-yl]cyclopropanesulfonamide] | 96%
9 | Cc1ccc2nc1Oc1cc(ccc1F)C[C@H]1[C@@H](NS(C)(=O)=O)CCN1C(=O)NC2 (relative stereo) [Example 9, N-[rel-(15aR,16R)-11-fluoro-7-methyl-1-oxo-2,3,15a,16,17,18-hexahydro-1H,15H-4,8-(azeno)-10,14-(metheno)pyrrolo[1,2-j][1,8,10]oxadiazacyclo-heptadecin-16-yl]methanesulfonamide (optical isomer)] | 93%
